15 molecules from PubChem BioAssay AID248 (DTP/NCI, 2004) can be followed below.

Values joined by “and” are separate entries in the source; they are usually repeats but may differ in a detail not shown here. Equal entries are not always repeated. Inconclusive results and toxic doses are left out.

The test system of this test is L1210 leukemia ip in BDF1 mice, survival T/C. Briefly: NCI In Vivo Anticancer Drug Screen. Data for tumor model L1210 Leukemia (intraperitoneal) in B6D2F1 (BDF1) mice. The conditions noted are these: endpoint: mean survival time, higher = longer survival. In outline: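 Transplanted-tumor mice were given test agent; controls received vehicle only. Survival readings from the two groups were divided (treated over control).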

[1] abbreviates: dose: 100.0 mg/kg/injection, schedule: Q01DX009 (ip), vehicle: saline with Tween-80.
[2] abbreviates: dose: 100.0 mg/kg/injection, schedule: Q04DX003 (ip), vehicle: saline with Tween-80.
The mark [3] stands for this setting: dose: 200.0 mg/kg/injection, schedule: Q01DX009 (ip), vehicle: saline with Tween-80.
[4] abbreviates: dose: 200.0 mg/kg/injection, schedule: Q04DX003 (ip), vehicle: saline with Tween-80.
The mark [5] stands for this setting: dose: 400.0 mg/kg/injection, schedule: Q04DX003 (ip), vehicle: saline with Tween-80.
[6] abbreviates: dose: 100.0 mg/kg/injection, schedule: Q01DX009 (ip), vehicle: Klucel (hydroxypropylcellulose) (HPC).
[7] abbreviates: dose: 200.0 mg/kg/injection, schedule: Q01DX009 (ip), vehicle: Klucel (hydroxypropylcellulose) (HPC).
Setting [8] is: dose: 400.0 mg/kg/injection, schedule: Q01DX009 (ip), vehicle: Klucel (hydroxypropylcellulose) (HPC).
Setting [9] is: dose: 400.0 mg/kg/injection, schedule: Q01DX001 (ip), vehicle: saline.
Setting [10] is: dose: 100.0 mg/kg/injection, schedule: Q01DX001 (ip), vehicle: carboxymethylcellulose (CMC).
Setting [11] is: dose: 200.0 mg/kg/injection, schedule: Q01DX001 (ip), vehicle: carboxymethylcellulose (CMC).
Setting [12] is: dose: 400.0 mg/kg/injection, schedule: Q01DX001 (ip), vehicle: carboxymethylcellulose (CMC).

As for `NNC12CC3CC(CC(C3)C1)C2`, the T/C is 100 % of control (dose: 1.56 mg/kg/injection, schedule: Q01DX009 (ip), vehicle: saline); 100 % of control (dose: 3.12 mg/kg/injection, schedule: Q01DX009 (ip), vehicle: saline); 100 % of control (dose: 6.25 mg/kg/injection, schedule: Q01DX009 (ip), vehicle: saline); 110 % of control and 90 % of control (dose: 12.5 mg/kg/injection, schedule: Q01DX009 (ip), vehicle: saline); 105 % of control (dose: 12.5 mg/kg/injection, schedule: Q04DX003 (ip), vehicle: saline); 118 % of control (dose: 25.0 mg/kg/injection, schedule: Q04DX003 (ip), vehicle: saline). Besides, the T/C (dose: 50.0 mg/kg/injection, schedule: Q04DX003 (ip), vehicle: saline) is 96 % of control.
As to `Cc1ccc2c(c1)nc1c3ccccc3nc(-c3ccccc3N)n21`, the T/C was 89 % of control under setting [1]; 104 % of control under setting [2]; 87 % of control under setting [3]; 91 % of control under setting [4]; 104 % of control under setting [5].
Take `O=c1oc(-c2cccc(Cl)c2)nc2cc(Cl)ccc12`: the T/C by setting is: under setting [6], 104 % of control; under setting [7], 116 % of control; under setting [8], 115 % of control.
On to `CC12CCC(=O)C=C1CCC1C2CCC2(C)C(C(=O)COC(=O)c3cc([N+](=O)[O-])c(N4CC4)c([N+](=O)[O-])c3)CCC12` (stereo not drawn), for which the T/C reads like this: (dose: 50.0 mg/kg/injection, schedule: Q01DX001 (sc), vehicle: steriod suspending solution) 95 % of control; (dose: 60.0 mg/kg/injection, schedule: Q01DX015 (ip), vehicle: saline) 88 % of control; (dose: 90.0 mg/kg/injection, schedule: Q01DX015 (ip), vehicle: saline) 86 % of control; (dose: 100.0 mg/kg/injection, schedule: Q01DX001 (sc), vehicle: steriod suspending solution) 106 % of control; (dose: 135.0 mg/kg/injection, schedule: Q01DX015 (ip), vehicle: saline) 88 % of control; (dose: 200.0 mg/kg/injection, schedule: Q01DX001 (sc), vehicle: steriod suspending solution) 97 % of control. The T/C runs as follows: (dose: 200.0 mg/kg/injection, schedule: Q01DX015 (ip), vehicle: saline) 91 % of control; (dose: 400.0 mg/kg/injection, schedule: Q01DX001 (sc), vehicle: steriod suspending solution) 101 % of control.
As for `CC(=O)C1CCC2C3CCC4CC(O)CCC4(C)C3CCC12C#N` (stereo not drawn), the T/C reads like this: (dose: 100.0 mg/kg/injection, schedule: Q01DX009 (sc), vehicle: steriod suspending solution) 101 % of control; (dose: 100.0 mg/kg/injection, schedule: Q04DX003 (sc), vehicle: steriod suspending solution) 93 % of control; (dose: 200.0 mg/kg/injection, schedule: Q01DX009 (sc), vehicle: steriod suspending solution) 108 % of control; (dose: 200.0 mg/kg/injection, schedule: Q04DX003 (sc), vehicle: steriod suspending solution) 102 % of control; (dose: 400.0 mg/kg/injection, schedule: Q01DX009 (sc), vehicle: steriod suspending solution) 108 % of control; (dose: 400.0 mg/kg/injection, schedule: Q04DX003 (sc), vehicle: steriod suspending solution) 104 % of control.
With `CC1CCC(C(C)C)C(NCc2cc(Cl)cc(Cl)c2O)C1` (stereo not drawn), the T/C is 104 % of control (dose: 100.0 mg/kg/injection, schedule: Q04DX003 (ip), vehicle: Klucel (hydroxypropylcellulose) (HPC)); 101 % of control (dose: 200.0 mg/kg/injection, schedule: Q04DX003 (ip), vehicle: Klucel (hydroxypropylcellulose) (HPC)); 97 % of control (dose: 400.0 mg/kg/injection, schedule: Q04DX003 (ip), vehicle: Klucel (hydroxypropylcellulose) (HPC)).
With `Nc1nc(=S)c2ncn(C3OC(COC(=O)c4ccccc4)C(OC(=O)c4ccccc4)C3OC(=O)c3ccccc3)c2[nH]1` (stereo not drawn), the T/C was 104 % of control (dose: 0.1 mg/kg/injection, schedule: Q01DX009 (ip), vehicle: saline); 118 % of control (dose: 0.3 mg/kg/injection, schedule: Q01DX009 (ip), vehicle: saline); 118 % of control (dose: 0.6 mg/kg/injection, schedule: Q01DX009 (ip), vehicle: saline); 159 % of control (dose: 5.0 mg/kg/injection, schedule: Q01DX009 (ip), vehicle: saline); 116 % of control (dose: 29.0 mg/kg/injection, schedule: Q01DX Z (ip), vehicle: methylcellulose (MC)); 164 % of control (dose: 45.0 mg/kg/injection, schedule: Q01DX009 (ip), vehicle: saline). For the same molecule, the T/C is 153 % of control (dose: 100.0 mg/kg/injection, schedule: Q01DX Z (ip), vehicle: methylcellulose (MC)); 98 % of control (dose: 175.0 mg/kg/injection, schedule: Q01DX009 (ip), vehicle: saline); 118 % of control (dose: 265.0 mg/kg/injection, schedule: Q01DX001 (ip), vehicle: saline); 86 % of control under setting [9].
For the molecule `COc1ccc(C)cc1NC(=O)Nc1cc(C(F)(F)F)ccc1Cl`, the T/C was 88 % of control under setting [6], 95 % of control under setting [7] and 90 % of control under setting [8].
For the molecule `Nc1[nH]c(=O)nc2nc(I)[nH]c12`, the T/C was 97 % of control under setting [10], 100 % of control under setting [11] and 113 % of control under setting [12].
Take `OC(CC(O)(C(F)(F)F)C(F)(F)F)c1cccs1` (stereo not drawn): the T/C under setting [2] was 106 % of control, the T/C under setting [4] was 100 % of control and the T/C under setting [5] is 101 % of control.
As to `O=C1Nc2ccc(Br)cc2C1(O)Cc1cccc([N+](=O)[O-])c1` (stereo not drawn), the T/C is 90 % of control (dose: 50.0 mg/kg/injection, schedule: Q01DX009 (ip), vehicle: saline with Tween-80); 93 % of control under setting [1]; 91 % of control (dose: 100.0 mg/kg/injection, schedule: Q04DX002 (ip), vehicle: saline with Tween-80); 90 % of control under setting [3]; 91 % of control (dose: 200.0 mg/kg/injection, schedule: Q04DX002 (ip), vehicle: saline with Tween-80).
For `COC(=O)c1ccc2cc(OC)cc([N+](=O)[O-])c2n1`, the T/C is, setting by setting: (dose: 50.0 mg/kg/injection, schedule: Q01DX001 (ip), vehicle: carboxymethylcellulose (CMC)) 87 % of control; under setting [10], 93 % of control; under setting [11], 102 % of control; under setting [12], 93 % of control.
As for `CCCCC(=O)N1CC(C)OC(C)C1` (stereo not drawn), the T/C is, setting by setting: under setting [10], 97 % of control; (dose: 100.0 mg/kg/injection, schedule: Q01DX009 (ip), vehicle: carboxymethylcellulose (CMC)) 96 % of control; (dose: 100.0 mg/kg/injection, schedule: Q04DX002 (ip), vehicle: carboxymethylcellulose (CMC)) 102 % of control; (dose: 100.0 mg/kg/injection, schedule: Q04DX003 (ip), vehicle: carboxymethylcellulose (CMC)) 102 % of control; under setting [11], 102 % of control; (dose: 200.0 mg/kg/injection, schedule: Q01DX009 (ip), vehicle: carboxymethylcellulose (CMC)) 94 % of control and 104 % of control. Further, the T/C by setting is: (dose: 200.0 mg/kg/injection, schedule: Q04DX002 (ip), vehicle: carboxymethylcellulose (CMC)) 98 % of control; (dose: 200.0 mg/kg/injection, schedule: Q04DX003 (ip), vehicle: carboxymethylcellulose (CMC)) 102 % of control; under setting [12], 106 % of control; (dose: 400.0 mg/kg/injection, schedule: Q01DX009 (ip), vehicle: carboxymethylcellulose (CMC)) 94 % of control and 98 % of control; (dose: 400.0 mg/kg/injection, schedule: Q04DX002 (ip), vehicle: carboxymethylcellulose (CMC)) 105 % of control; (dose: 400.0 mg/kg/injection, schedule: Q04DX003 (ip), vehicle: carboxymethylcellulose (CMC)) 96 % of control.
As to `O=C1C(c2ccccc2)=C(c2ccccc2)C(c2ccccc2)C1c1ccccc1` (stereo not drawn), the T/C runs as follows: (dose: 100.0 mg/kg/injection, schedule: Q04DX002 (ip), vehicle: gum acacia) 100 % of control; (dose: 200.0 mg/kg/injection, schedule: Q04DX002 (ip), vehicle: gum acacia) 87 % of control; (dose: 400.0 mg/kg/injection, schedule: Q04DX002 (ip), vehicle: gum acacia) 90 % of control.
For `CCCCCCCCCCCCCCc1sc(N)nc1-c1ccccc1`, the T/C is 98 % of control (dose: 100.0 mg/kg/injection, schedule: Q01DX001 (ip), vehicle: saline); 98 % of control (dose: 200.0 mg/kg/injection, schedule: Q01DX001 (ip), vehicle: saline); 95 % of control under setting [9].
